22 compounds from ChEMBL document CHEMBL1138639, “Carbonic anhydrase inhibitors: inhibition of human cytosolic isozyme II and mitochondrial isozyme V with a series of benzene sulfonamide derivatives” (Bioorg Med Chem Lett, 2004) can be followed below.

The target in assay [1] is Carbonic anhydrase 5A, mitochondrial (Homo sapiens, UniProt P35218).
For assay [2], the target named is Carbonic anhydrase 2 (Homo sapiens, UniProt P00918).

Sequence of Carbonic anhydrase 5A, mitochondrial (P35218 whole entry): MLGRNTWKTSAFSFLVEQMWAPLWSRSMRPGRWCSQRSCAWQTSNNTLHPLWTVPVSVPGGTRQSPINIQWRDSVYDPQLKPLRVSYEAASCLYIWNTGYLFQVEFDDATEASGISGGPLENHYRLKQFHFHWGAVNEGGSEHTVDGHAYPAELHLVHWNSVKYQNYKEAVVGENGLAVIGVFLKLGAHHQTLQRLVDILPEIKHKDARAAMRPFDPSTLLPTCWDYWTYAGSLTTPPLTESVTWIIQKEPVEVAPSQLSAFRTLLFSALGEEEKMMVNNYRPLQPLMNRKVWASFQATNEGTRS

In the case of `COC(=O)c1ccccc1S(N)(=O)=O`, the IC50 – broadly, the concentration that gives 50% inhibition – in assay [1] came to 53.2 µM.

Compound `NNc1ccccc1S(N)(=O)=O` showed an IC50 in assay [1] of 9.6 µM.

`NS(=O)(=O)c1nc2ccc([N+](=O)[O-])cc2s1`: the results for the half-maximal inhibitory concentration (IC50) in assay [2] and in assay [1] were 0.25 µM and 44.9 µM, respectively.

Take `N/C(S)=N/Nc1ccc(S(N)(=O)=O)cc1`: the 50% inhibitory concentration (IC50) came out at 0.29 µM in assay [2] and 63.7 µM in assay [1].

`Nc1ccc(S(N)(=O)=O)cc1I` yielded a half-maximal inhibitory concentration (IC50) in assay [1] of 9.4 µM. In other words, the single-digit micromolar range.

On to `NS(=O)(=O)c1ccc([N+](=O)[O-])cc1`, for which the concentration for half-maximal inhibition (IC50) in assay [2] amounted to 0.4 µM; in assay [1] it was 4.2 µM.

With `N#CSc1ccc(S(N)(=O)=O)cc1`, the half-inhibitory concentration (IC50) worked out at 3.6 µM in assay [2] and 8.6 µM in assay [1].

Turning to `NS(=O)(=O)c1cccc([N+](=O)[O-])c1`, the IC50 in assay [2] came out at 0.41 µM; in assay [1], 0.78 µM.

In the case of `Nc1nccc(Nc2ccc(S(N)(=O)=O)cc2)n1`, the IC50 in assay [1] came out at 29.9 µM. This lies in the double-digit micromolar range.

In turn, `Nc1ccccc1S(N)(=O)=O` registered an IC50 in assay [1] of 15.3 µM.

In assay [1], `Nc1ccc(S(N)(=O)=O)cc1Br` gave an IC50 of 7.6 µM.

For `NS(=O)(=O)c1ccc(CCO)cc1`, the half-inhibitory concentration (IC50) in assay [1] came to 17 µM.

Turning to `Nc1ccc(S(N)(=O)=O)cc1F`, the midpoint of inhibition in assay [1], the IC50, lay at 9.3 µM.

`NS(=O)(=O)c1ccc(CO)cc1` had an IC50 in assay [1] of 9.3 µM.

In assay [1], `NCCc1ccc(S(N)(=O)=O)cc1` showed an IC50 of 42.4 µM.

On to `Nc1ccc(S(N)(=O)=O)cc1Cl`, for which the IC50 in assay [1] was 7.4 µM.

`NNc1ccc(S(N)(=O)=O)cc1` yielded an IC50 in assay [1] of 7.7 µM.

With `NS(=O)(=O)c1ccc(C(=O)O)cc1` [CARZENIDE], it took 2.65 µM to reach half-maximal inhibition in assay [1] (IC50).

`NCc1ccc(S(N)(=O)=O)cc1` [MAFENIDE] registered an IC50 in assay [1] of 27.6 µM.

As for `Cc1ccc(S(N)(=O)=O)cc1` [P-TOLUENESULFONAMIDE], in assay [1], the IC50 was determined as 4.7 µM.

As to `[H]/N=C(/N)NS(=O)(=O)c1ccc(N)cc1` [SULFAGUANIDINE], the half-maximal inhibitory concentration (IC50) in assay [2] and in assay [1] was more than 100 µM in each case.

As to `Nc1ccc(S(N)(=O)=O)cc1` [SULFANILAMIDE], the IC50 in assay [1] was determined as 32 µM. In other words, the double-digit micromolar range.
